Here are results for two compounds from US7374870B2, “Systems and methods for removing viral agents from blood” (Fenwal, Inc., priority 1996, dated 2008).

One assay relates to viruses. Description: Viral inactivation by the photoreduction byproduct. As to conditions: byproduct formed by exposing methylene blue to visible ambient light.
The test system of assay [1] is encephalomyocarditis virus (EMC). The note with it: cited from earlier work.

`CN(C)c1ccc2c(c1)Sc1cc(N(C)C)ccc1N2` [leucomethylene blue]: the “effectiveness in inactivating viruses” value in the assay on viruses is “not effective in inactivating viruses”.

As to `CN(C)c1ccc2nc3ccc(=[N+](C)C)cc-3sc2c1` [methylene blue], in assay [1], the “virucidal action on non-enveloped EMC” value is recorded as “demonstrated a resistance to the virucidal action”.
